Experimental data published in patent US11857519B2, “Compounds and methods for the targeted degradation of enhancer of zeste homolog 2 polypeptide” (Arvinas Operations, Inc., priority 2016, dated 2024).

Biological target: T1, EZH2 (Homo sapiens, UniProt Q15910)
T1 construct: Protocol of the Cellular Assay of Target Protein Degradation (VCaP Cells, ELISA); endogenous in cells; host or cells: VCaP cells
Assay: Cellular assay of target protein degradation (VCaP cells, ELISA)
Type: cell-based
Details: 4 hours, protein degradation range at indicated concentration (relative to DMSO control)
Summary of the method: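 EZH2 level measured by sandwich ELISA (TMB, A450 minus A562 background) in lysates of VCaP cells. Cells had been cultured at least 3 days in 5% CSS RPMI before 4 h compound exposure in 0.1% DMSO.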

T1 sequence (Q15910 whole entry): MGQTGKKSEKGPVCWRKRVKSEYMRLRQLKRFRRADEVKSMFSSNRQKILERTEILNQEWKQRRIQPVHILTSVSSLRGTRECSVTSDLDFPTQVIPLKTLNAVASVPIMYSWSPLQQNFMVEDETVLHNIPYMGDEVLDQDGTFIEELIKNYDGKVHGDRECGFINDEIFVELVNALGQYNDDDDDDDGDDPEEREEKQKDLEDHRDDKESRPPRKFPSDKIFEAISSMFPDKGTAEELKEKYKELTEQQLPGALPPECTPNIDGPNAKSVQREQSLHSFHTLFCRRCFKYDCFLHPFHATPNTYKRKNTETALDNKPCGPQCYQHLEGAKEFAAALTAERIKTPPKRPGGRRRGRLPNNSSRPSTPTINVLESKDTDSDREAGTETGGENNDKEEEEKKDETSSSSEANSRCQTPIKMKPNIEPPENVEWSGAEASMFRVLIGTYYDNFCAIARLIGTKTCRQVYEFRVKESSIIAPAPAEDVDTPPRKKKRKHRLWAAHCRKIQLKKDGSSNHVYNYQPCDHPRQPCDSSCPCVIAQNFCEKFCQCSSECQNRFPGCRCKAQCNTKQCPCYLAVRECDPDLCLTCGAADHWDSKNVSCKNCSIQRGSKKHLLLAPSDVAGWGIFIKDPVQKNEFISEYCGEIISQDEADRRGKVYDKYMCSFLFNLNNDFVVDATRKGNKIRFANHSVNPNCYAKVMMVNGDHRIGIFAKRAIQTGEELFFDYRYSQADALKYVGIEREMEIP
T1 sequence (O75530 whole entry partner): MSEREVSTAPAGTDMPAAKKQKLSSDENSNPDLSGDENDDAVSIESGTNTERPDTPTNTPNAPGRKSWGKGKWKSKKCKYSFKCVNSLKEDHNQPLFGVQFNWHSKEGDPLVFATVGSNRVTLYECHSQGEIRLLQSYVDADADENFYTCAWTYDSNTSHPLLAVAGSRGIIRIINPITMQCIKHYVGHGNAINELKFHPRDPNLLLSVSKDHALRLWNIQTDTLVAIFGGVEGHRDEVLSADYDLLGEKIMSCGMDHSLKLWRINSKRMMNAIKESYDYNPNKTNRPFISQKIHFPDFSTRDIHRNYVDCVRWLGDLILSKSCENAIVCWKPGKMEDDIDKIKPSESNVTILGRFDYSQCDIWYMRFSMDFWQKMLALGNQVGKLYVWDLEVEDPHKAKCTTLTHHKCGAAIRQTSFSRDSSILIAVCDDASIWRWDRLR
T1 sequence (Q15022 whole entry partner): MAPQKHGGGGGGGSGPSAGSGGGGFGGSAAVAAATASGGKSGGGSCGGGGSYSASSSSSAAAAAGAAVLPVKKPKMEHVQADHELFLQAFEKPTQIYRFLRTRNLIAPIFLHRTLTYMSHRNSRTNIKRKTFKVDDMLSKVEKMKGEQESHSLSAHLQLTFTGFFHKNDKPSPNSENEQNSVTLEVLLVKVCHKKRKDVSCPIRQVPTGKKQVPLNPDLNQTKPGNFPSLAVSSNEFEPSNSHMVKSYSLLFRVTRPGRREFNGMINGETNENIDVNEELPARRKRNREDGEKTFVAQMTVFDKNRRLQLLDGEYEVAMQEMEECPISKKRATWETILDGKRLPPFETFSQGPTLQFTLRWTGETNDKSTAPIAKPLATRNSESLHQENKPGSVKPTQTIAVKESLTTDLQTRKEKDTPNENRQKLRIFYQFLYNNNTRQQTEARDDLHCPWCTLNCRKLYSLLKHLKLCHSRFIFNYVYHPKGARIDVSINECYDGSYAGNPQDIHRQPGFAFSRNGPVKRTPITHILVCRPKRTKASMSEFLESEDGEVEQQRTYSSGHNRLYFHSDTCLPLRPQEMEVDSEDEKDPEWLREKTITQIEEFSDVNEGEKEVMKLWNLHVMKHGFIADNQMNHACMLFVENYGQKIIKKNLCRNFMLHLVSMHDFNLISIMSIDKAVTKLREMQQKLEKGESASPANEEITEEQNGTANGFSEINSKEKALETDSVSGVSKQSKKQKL

Row | SMILES | percent target protein degradation class
1 | CCN(c1cc(-c2ccc(OCCCCOCCCOc3cc(-c4scnc4C)ccc3CNC(=O)[C@@H]3C[C@@H](O)CN3C(=O)[C@H](C(C)C)N3Cc4ccccc4C3=O)cc2)cc(C(=O)NCc2c(C)cc(C)[nH]c2=O)c1C)C1CCOCC1 [Compound 40, (2S,4R)-N-{[2-(3-{4-[4-(3-{[(4,6-dimethyl-2-oxo-1,2-dihydropyridin-3-yl)methyl]carbamoyl}-5-[ethyl(oxan-4-yl)amino]-4-methylphenyl)phenoxy]butoxy}propoxy)-4-(4-methyl-1,3-thiazol-5-yl)phenyl]methyl}-4-hydroxy-1-[(2S)-3-methyl-2-(1-oxo-2,3-dihydro-1H-isoindol-2-yl)butanoyl]pyrrolidine-2-carboxamide] | B (B = degradation between 30% and 60%)
2 | CCN(c1cc(-c2ccc(OCCCOCC(=O)N[C@H](C(=O)N3C[C@H](O)C[C@H]3C(=O)NCc3ccc(-c4scnc4C)cc3)C(C)(C)C)cc2)cc(C(=O)NCc2c(C)cc(C)[nH]c2=O)c1C)C1CCOCC1 [Compound 41, (2S,4R)-1-[(2S)-2-(2-{3-[4-(3-{[(4,6-dimethyl-2-oxo-1,2-dihydropyridin-3-yl)methyl]carbamoyl}-5-[ethyl(oxan-4-yl)amino]-4-methylphenyl)phenoxy]propoxy}acetamido)-3,3-dimethylbutanoyl]-4-hydroxy-N-{[4-(4-methyl-1,3-thiazol-5-yl)phenyl]methyl}pyrrolidine-2-carboxamide] | A (A = degradation more than 60%)
3 | CCN(c1cc(-c2ccc(OCCOCCOCC(=O)N[C@H](C(=O)N3C[C@H](O)C[C@H]3C(=O)N[C@@H](C)c3ccc(-c4scnc4C)cc3)C(C)(C)C)cc2)cc(C(=O)NCc2c(C)cc(C)[nH]c2=O)c1C)C1CCOCC1 [Compound 43, (2S,4R)-1-[(2S)-2-[2-(2-{2-[4-(3-{[(4,6-dimethyl-2-oxo-1,2-dihydropyridin-3-yl)methyl]carbamoyl}-5-[ethyl(oxan-4-yl)amino]-4-methylphenyl)phenoxy]ethoxy}ethoxy)acetamido]-3,3-dimethylbutanoyl]-4-hydroxy-N-[(1S)-1-[4-(4-methyl-1,3-thiazol-5-yl)phenyl]ethyl]pyrrolidine-2-carboxamide] | A (A = degradation more than 60%)
4 | CCN(c1cc(-c2ccc(CCCOCCCCC(=O)N[C@H](C(=O)N3C[C@H](O)C[C@H]3C(=O)NCc3ccc(-c4scnc4C)cc3)C(C)(C)C)cc2)cc(C(=O)NCc2c(C)cc(C)[nH]c2=O)c1C)C1CCOCC1 [Compound 44, (2S,4R)-1-[(2S)-2-(5-{3-[4-(3-{[(4,6-dimethyl-2-oxo-1,2-dihydropyridin-3-yl)methyl]carbamoyl}-5-[ethyl(oxan-4-yl)amino]-4-methylphenyl)phenyl]propoxy}pentanamido)-3,3-dimethylbutanoyl]-4-hydroxy-N-{[4-(4-methyl-1,3-thiazol-5-yl)phenyl]methyl}pyrrolidine-2-carboxamide] | B (B = degradation between 30% and 60%)
5 | CCN(c1cc(-c2ccc(OCCCOCCOCC(=O)N[C@H](C(=O)N3C[C@H](O)C[C@H]3C(=O)NCc3ccc(-c4scnc4C)cc3)C(C)(C)C)cc2)cc(C(=O)NCc2c(C)cc(C)[nH]c2=O)c1C)C1CCOCC1 [Compound 45, (2S,4R)-1-[(2S)-2-[2-(2-{3-[4-(3-{[(4,6-dimethyl-2-oxo-1,2-dihydropyridin-3-yl)methyl]carbamoyl}-5-[ethyl(oxan-4-yl)amino]-4-methylphenyl)phenoxy]propoxy}ethoxy)acetamido]-3,3-dimethylbutanoyl]-4-hydroxy-N-{[4-(4-methyl-1,3-thiazol-5-yl)phenyl]methyl}pyrrolidine-2-carboxamide] | B (B = degradation between 30% and 60%)
6 | CCN(c1cc(-c2ccc(OCCCCCOCC(=O)N[C@H](C(=O)N3C[C@H](O)C[C@H]3C(=O)NCc3ccc(-c4scnc4C)cc3)C(C)(C)C)cc2)cc(C(=O)NCc2c(C)cc(C)[nH]c2=O)c1C)C1CCOCC1 [Compound 46, (2S,4R)-1-[(2S)-2-[2-({5-[4-(3-{[(4,6-dimethyl-2-oxo-1,2-dihydropyridin-3-yl)methyl]carbamoyl}-5-[ethyl(oxan-4-yl)amino]-4-methylphenyl)phenoxy]pentyl}oxy)acetamido]-3,3-dimethylbutanoyl]-4-hydroxy-N-{[4-(4-methyl-1,3-thiazol-5-yl)phenyl]methyl}pyrrolidine-2-carboxamide] | A (A = degradation more than 60%)
7 | CCN(c1cc(-c2ccc(CCCOCCOCC(=O)N[C@H](C(=O)N3C[C@H](O)C[C@H]3C(=O)NCc3ccc(-c4scnc4C)cc3)C(C)(C)C)cc2)cc(C(=O)NCc2c(C)cc(C)[nH]c2=O)c1C)C1CCOCC1 [Compound 47, (2S,4R)-1-[(2S)-2-[2-(2-{3-[4-(3-{[(4,6-dimethyl-2-oxo-1,2-dihydropyridin-3-yl)methyl]carbamoyl}-5-[ethyl(oxan-4-yl)amino]-4-methylphenyl)phenyl]propoxy}ethoxy)acetamido]-3,3-dimethylbutanoyl]-4-hydroxy-N-{[4-(4-methyl-1,3-thiazol-5-yl)phenyl]methyl}pyrrolidine-2-carboxamide] | B (B = degradation between 30% and 60%)
8 | CCN(c1cc(-c2ccc(OCCCOCCCOCC(=O)N[C@H](C(=O)N3C[C@H](O)C[C@H]3C(=O)NCc3ccc(-c4scnc4C)cc3)C(C)(C)C)cc2)cc(C(=O)NCc2c(C)cc(C)[nH]c2=O)c1C)C1CCOCC1 [Compound 48, (2S,4R)-1-[(2S)-2-[2-(3-{3-[4-(3-{[(4,6-dimethyl-2-oxo-1,2-dihydropyridin-3-yl)methyl]carbamoyl}-5-[ethyl(oxan-4-yl)amino]-4-methylphenyl)phenoxy]propoxy}propoxy)acetamido]-3,3-dimethylbutanoyl]-4-hydroxy-N-{[4-(4-methyl-1,3-thiazol-5-yl)phenyl]methyl}pyrrolidine-2-carboxamide] | A (A = degradation more than 60%)
9 | CCN(c1cc(-c2ccc(OCCOCCCCCOc3cc(-c4scnc4C)ccc3CNC(=O)[C@@H]3C[C@@H](O)CN3C(=O)[C@H](C(C)C)N3Cc4ccccc4C3=O)cc2)cc(C(=O)NCc2c(C)cc(C)[nH]c2=O)c1C)C1CCOCC1 [Compound 49, (2S,4R)-N-({2-[(5-{2-[4-(3-{[(4,6-dimethyl-2-oxo-1,2-dihydropyridin-3-yl)methyl]carbamoyl}-5-[ethyl(oxan-4-yl)amino]-4-methylphenyl)phenoxy]ethoxy}pentyl)oxy]-4-(4-methyl-1,3-thiazol-5-yl)phenyl}methyl)-4-hydroxy-1-[(2S)-3-methyl-2-(1-oxo-2,3-dihydro-1H-isoindol-2-yl)butanoyl]pyrrolidine-2-carboxamide] | B (B = degradation between 30% and 60%)
10 | CCN(c1cc(-c2ccc(OCCCCCOCCOc3cc(-c4scnc4C)ccc3CNC(=O)[C@@H]3C[C@@H](O)CN3C(=O)[C@H](C(C)C)N3Cc4ccccc4C3=O)cc2)cc(C(=O)NCc2c(C)cc(C)[nH]c2=O)c1C)C1CCOCC1 [Compound 50, (2S,4R)-N-({2-[2-({5-[4-(3-{[(4,6-dimethyl-2-oxo-1,2-dihydropyridin-3-yl)methyl]carbamoyl}-5-[ethyl(oxan-4-yl)amino]-4-methylphenyl)phenoxy]pentyl}oxy)ethoxy]-4-(4-methyl-1,3-thiazol-5-yl)phenyl}methyl)-4-hydroxy-1-[(2S)-3-methyl-2-(1-oxo-2,3-dihydro-1H-isoindol-2-yl)butanoyl]pyrrolidine-2-carboxamide] | A (A = degradation more than 60%)
11 | CCN(c1cc(-c2ccc(OCCCOCCCCOc3cc(-c4scnc4C)ccc3CNC(=O)[C@@H]3C[C@@H](O)CN3C(=O)[C@H](C(C)C)N3Cc4ccccc4C3=O)cc2)cc(C(=O)NCc2c(C)cc(C)[nH]c2=O)c1C)C1CCOCC1 [Compound 51, (2S,4R)-N-{[2-(4-{3-[4-(3-{[(4,6-dimethyl-2-oxo-1,2-dihydropyridin-3-yl)methyl]carbamoyl}-5-[ethyl(oxan-4-yl)amino]-4-methylphenyl)phenoxy]propoxy}butoxy)-4-(4-methyl-1,3-thiazol-5-yl)phenyl]methyl}-4-hydroxy-1-[(2S)-3-methyl-2-(1-oxo-2,3-dihydro-1H-isoindol-2-yl)butanoyl]pyrrolidine-2-carboxamide] | B (B = degradation between 30% and 60%)
12 | CCN(c1cc(-c2ccc(OCCCCOCCOc3cc(-c4scnc4C)ccc3CNC(=O)[C@@H]3C[C@@H](O)CN3C(=O)[C@H](C(C)C)N3Cc4ccccc4C3=O)cc2)cc(C(=O)NCc2c(C)cc(C)[nH]c2=O)c1C)C1CCOCC1 [Compound 53, (2S,4R)-N-{[2-(2-{4-[4-(3-{[(4,6-dimethyl-2-oxo-1,2-dihydropyridin-3-yl)methyl]carbamoyl}-5-[ethyl(oxan-4-yl)amino]-4-methylphenyl)phenoxy]butoxy}ethoxy)-4-(4-methyl-1,3-thiazol-5-yl)phenyl]methyl}-4-hydroxy-1-[(2S)-3-methyl-2-(1-oxo-2,3-dihydro-1H-isoindol-2-yl)butanoyl]pyrrolidine-2-carboxamide] | B (B = degradation between 30% and 60%)
13 | CCN(c1cc(-c2ccc(OCCCOCCOCCOc3cc(-c4scnc4C)ccc3CNC(=O)[C@@H]3C[C@@H](O)CN3C(=O)[C@H](C(C)C)N3Cc4ccccc4C3=O)cc2)cc(C(=O)NCc2c(C)cc(C)[nH]c2=O)c1C)C1CCOCC1 [Compound 54, (2S,4R)-N-({2-[2-(2-{3-[4-(3-{[(4,6-dimethyl-2-oxo-1,2-dihydropyridin-3-yl)methyl]carbamoyl}-5-[ethyl(oxan-4-yl)amino]-4-methylphenyl)phenoxy]propoxy}ethoxy)ethoxy]-4-(4-methyl-1,3-thiazol-5-yl)phenyl}methyl)-4-hydroxy-1-[(2S)-3-methyl-2-(1-oxo-2,3-dihydro-1H-isoindol-2-yl)butanoyl]pyrrolidine-2-carboxamide] | B (B = degradation between 30% and 60%)
